# Assay: Dynamic Vapor Sorption (DVS) hygroscopicity
# Format: physicochemical
# Settings: for hygroscopicity by DVS analysis (in words): 0 to 90% RH at 25° C.; for DVS (%): Table 6 summary of crystalline Forms I-V; for DVS weight change: from 0 to 90% RH at 25° C.
# Experimental: Dynamic Vapor Sorption (DVS) was used to study hygroscopicity on Model Q5000 SA (TA Instruments, New Castle, DE). A sample (1-10 mg) was placed in an aluminum pan and loaded on the sample side of the twin pan balance. The water sorption and desorption were studied as a function of relative humidity (RH) at 25° C. in 10% RH increments from 0% RH to 90% RH and then back to 0%. […] Data analysis was performed using Universal Analysis 2000 Version 4.7A (TA Instruments, New Castle, DE).
# [1] = listed as Compound 1, crystalline Form II
# [2] = listed as Compound 1, crystalline Form IV
# [3] = listed as Compound 1, crystalline Form III
# [4] = listed as Compound 1, crystalline Form V
structure (smiles),measurement,setting,value
"C#C[C@]1(COC(=O)Cc2ccccc2)O[C@@H](n2cnc3c(N)nc(F)nc32)C[C@@H]1OC(=O)Cc1ccccc1 [Form II, (2R,3S,5R)-5-(6-amino-2-fluoro-9H-purin-9-yl)-2-ethynyl-2-((2-phenylacetoxy)methyl)tetrahydrofuran-3-yl 2-phenylacetate]",hygroscopicity by DVS analysis (in words),[1],non-hygroscopic
same,DVS (%),listed as II,0.08%
same,DVS weight change,[1],around 0.1%
"C#C[C@]1(COC(=O)Cc2ccccc2)O[C@@H](n2cnc3c(N)nc(F)nc32)C[C@@H]1OC(=O)Cc1ccccc1 [Form IV, (2R,3S,5R)-5-(6-amino-2-fluoro-9H-purin-9-yl)-2-ethynyl-2-((2-phenylacetoxy)methyl)tetrahydrofuran-3-yl 2-phenylacetate]",hygroscopicity by DVS analysis (in words),[2],non-hygroscopic
same,DVS (%),listed as IV,0.16%
same,DVS weight change,[2],~0.16%
"C#C[C@]1(COC(=O)Cc2ccccc2)O[C@@H](n2cnc3c(N)nc(F)nc32)C[C@@H]1OC(=O)Cc1ccccc1 [Form III, (2R,3S,5R)-5-(6-amino-2-fluoro-9H-purin-9-yl)-2-ethynyl-2-((2-phenylacetoxy)methyl)tetrahydrofuran-3-yl 2-phenylacetate]",hygroscopicity by DVS analysis (in words),[3],slightly hygroscopic
same,DVS (%),listed as III,1.2%
same,DVS weight change,[3],~1.2%
"C#C[C@]1(COC(=O)Cc2ccccc2)O[C@@H](n2cnc3c(N)nc(F)nc32)C[C@@H]1OC(=O)Cc1ccccc1 [Form V, (2R,3S,5R)-5-(6-amino-2-fluoro-9H-purin-9-yl)-2-ethynyl-2-((2-phenylacetoxy)methyl)tetrahydrofuran-3-yl 2-phenylacetate]",hygroscopicity by DVS analysis (in words),[4],non-hygroscopic
same,DVS (%),listed as V,0.10%
same,DVS weight change,[4],~0.1%
"C#C[C@]1(COC(=O)Cc2ccccc2)O[C@@H](n2cnc3c(N)nc(F)nc32)C[C@@H]1OC(=O)Cc1ccccc1 [Form I, (2R,3S,5R)-5-(6-amino-2-fluoro-9H-purin-9-yl)-2-ethynyl-2-((2-phenylacetoxy)methyl)tetrahydrofuran-3-yl 2-phenylacetate]",DVS (%),listed as I,0.85%
